What was measured:
Type in all cases: cell-based, human
[1] = tested on: MGC80-3 cells; experiment: Apoptosis by Annexin V-FITC/PI flow cytometry, MGC80-3; conditions: control 0.586%
Procedure: The apoptosis ratios of MGC80-3 or T24 cell lines induced by the selected compounds at the concentration of IC50 and 0.5 IC50 were quantitatively determined by flow cytometry. Four quadrant images (Q1, Q2, Q3 and Q4) were observed by flow cytometric analysis. […] […] After treatment with compound 6h, 5.62% (3.43 μM) and 14.25% (6.85 μM) of the cells were apoptotic. These were higher percentages than the one observed in the control (0.586%). […] The results evidently illustrate that representative compounds 5d and 6h or 4h and 6h could suppress cell proliferation by inducing apoptosis in the early apoptotic period.
(§1) The apoptosis assay and the cell cycle analysis were carried out by cytometry (FACSVerse, BD, Piscataway, NJ, USA) at an excitation wavelength of 488 nm according to the method described in the literature with slight modifications. The cells were seeded at 2 × 10^6/well and washed by cold PBS. The buffer solutions were prepared using 0.1 M pH 7.4 Hepes/NaOH, 1.4 M NaCl, and 25 mM CaCl2.

[2] = tested on: T24 cells; experiment: Apoptosis by Annexin V-FITC/PI flow cytometry, T24; conditions: T24, at IC50 concentration (4h 8.05 μM; 6h 8.93 μM); control 1.18%
Procedure: The apoptosis ratios of MGC80-3 or T24 cell lines induced by the selected compounds at the concentration of IC50 and 0.5 IC50 were quantitatively determined by flow cytometry. Four quadrant images (Q1, Q2, Q3 and Q4) were observed by flow cytometric analysis. The results of apoptosis ratios (including the early and late apoptosis ratios) after 12 h are presented in Figure 6 (MGC80-3) and Figure 7 (T24). […] After treatment with compound 6h, 5.62% (3.43 μM) and 14.25% (6.85 μM) of the cells were apoptotic. These were higher percentages than the one observed in the control (0.586%). […] The results evidently illustrate that representative compounds 5d and 6h or 4h and 6h could suppress cell proliferation by inducing apoptosis in the early apoptotic period.
as §1

[3] = tested on: hepatocellular carcinoma bel-7404 (BEL-7404); experiment: MTT antiproliferative assay, BEL-7404; conditions: Homo sapiens, read-out: Effect against cell viability (IC50), BEL-7404

Compound: COc1ccc(-c2nnc(N=C3c4ccccc4NC4C=CC(C)=CC34)s2)cc1 (stereo not shown) [6h, 7-methyl-N-(5-(4-methoxyphenyl)-1,3,4-thiadiazol-2-yl)-10,10a-dihydroacridin-9(8aH)-imine]
- apoptosis percentage (early and late) ([1]; MGC80-3, 0.5 IC50 (5d 2.76 μM; 6h 3.43 μM)): 5.62%
- apoptosis percentage (early and late) ([1]; MGC80-3, IC50 (5d 5.52 μM; 6h 6.85 μM)): 14.25%
- apoptosis ratio [2]: 10.749%
- IC50 [3]: 20.2 ± 1.59 µM
